Values joined by “and” are separate entries in the source; they are usually repeats but may differ in a detail not shown here. Identical values can stand only once. Like-named read-outs stand apart in the source and are kept apart here.
How the values were obtained:
[1] = system: colorectal cancer xenograft model CR2528; assay: in vivo therapeutic efficacy, subcutaneous HuPrime colorectal cancer xenograft model (tumor volume); parameters: species or system female BALB/c Nude mice; settings: Day 20
Protocol: The above test articles were administered as single agent or in specific combination settings as described in Table 4. […] HBI-2438 and HBI-2376 (the compound of Formula Ia and the compound of Formula IIa, respectively) were supplied by Huyabio International, LLC.
(c) Tumor Inoculation: Tumor fragments from stock mice were harvested and used for inoculation into mice. Each mouse was inoculated subcutaneously in the right flank with CR2528 model tumor fragment (2-3 mm in diameter) for tumor development on May 25, 2022.
(d) Randomization: The randomization started when the mean tumor size reached 160 mm^3. 99 mice were enrolled in the study. All animals were randomly allocated to 11 study groups, 9 mice in each group. Randomization was performed based on “Matched distribution” method/“Stratified” method (StudyDirector™ software, version 3.1.399.19)/randomized block design. The date of randomization was denoted as day 0 (Jun. 13, 2022).
(§1) Tumor volumes were measured twice per week after randomization in two dimensions using a caliper, and the volume was expressed in mm^3 using the formula: “V=(L×W×W)/2, where V is tumor volume, L is tumor length (the longest tumor dimension) and W is tumor width (the longest tumor dimension perpendicular to L). Dosing as well as tumor and body weight measurements were conducted in a Laminar Flow Cabinet. The body weights and tumor volumes were measured by using StudyDirector™ software (version 3.1.399.19).
The treatments on both primary and secondary studies were performed for 3 weeks. The primary study was terminated on Day 21 with plasma and tumor samples collection. For secondary analysis tumor samples were collected after the final dose and were transferred in a sterile tube, to be frozen into liquid nitrogen. All the frozen tumor samples were stored in −80° C.

[2] = system: NCI-H1373-luc ICA tumor model; assay: in vivo anti-tumor efficacy, intra-carotid artery metastatic brain tumor model (bioluminescence); parameters: species or system Nu/Nu mice; settings: for T/C / TGI: day 21, from log 10 Bioluminescence
Source text: The objective of this Example is to evaluate the in vivo anti-tumor efficacy of AMG510 (positive control KRAS G12C inhibitor), MRTX 849 (positive control KRAS G12C inhibitor) and HBI-2438 (a KRAS G12C inhibitor of the invention) in NCH-H1373-luc ICA, an intra-carotid artery metastatic brain tumor model, in Nu/Nu mice. HBI-2438 (the compound of Formula Ia) was supplied by Huyabio International, LLC. This intra-carotid artery model is well recognized in the art for evaluating the ability of a target compound to treat metastatic brain tumor.
All the procedures related to animal handling, care and the treatment in the study were performed according to the guidelines approved by the Institutional Animal Care and Use Committee (IACUC) of WuXi AppTec, following the guidance of the Association for Assessment and Accreditation of Laboratory Animal Care (AAALAC). At the time of routine monitoring, the animals were checked daily for tumor growth and any effects of treatments on normal behavior such as mobility, food and water consumption (by looking only), body weight gain/loss (body weights were measured twice per week), eye/hair matting and any other abnormal effect as stated in the protocol. Death and observed clinical signs were recorded on the basis of the numbers of animals within each subset.
Methods: The NCI-H1373-luc tumor cells were maintained in medium supplemented with 10% heat inactivated fetal bovine serum at 37° C. in an atmosphere of 5% CO2 in air. The tumor cells were routinely subcultured twice weekly. The cells growing in an exponential growth phase were harvested and counted for tumor inoculation. Each mouse was inoculated with NCI-H1373-luc tumor cells (0.5×10^5) in 100 μL of PBS. The animals were randomized and treatments were started when the Bioluminescence signal reached 8*10^6. After grouping, the bioluminescence measurements were taken once per week with IVIS (Lumina II).
Each mouse was inoculated with NCI-H1373-luc tumor cells (0.5×10^5) in 100 μL of PBS. The animals were randomized and treatments were started when the Bioluminescence signal reached 8*10^6. After grouping, the bioluminescence measurements were taken once per week with IVIS (Lumina II).
Tumor growth inhibition rate for test articles in the NCI-H1373-luc model was calculated based on log 10 Bioluminescence measurement at day 21 after the start of treatment, as shown in Table 3.

[3] = format: in vivo; settings: for BW change: Day 20 vs Day 0
Protocol: Observation and Data Collection: After tumor cells inoculation, the animals were checked daily for morbidity and mortality. During routine monitoring, the animals were checked for any effects of tumor growth and treatments on behavior such as mobility, food and water consumption, body weight gain/loss (body weights were measured twice per week after randomization), eye/hair matting and any other abnormalities. Mortality and observed clinical signs were recorded for individual animals in detail.
as §1

[4] = 30 mg/kg PO QD, day 0 after start of treatment

For `C[C@@H]1OCC2(CCN(c3cnc(Sc4ccnc(N)c4Cl)c(N)n3)CC2)[C@@H]1N` [TNO-155, reference compound], the T/C ([1]; 5 mg/kg QD) was 53.02%, the TGI ([1]; 5 mg/kg QD) was 46.98% and the “Tumor Volume (mean ± SEM)” value ([1]; 5 mg/kg QD) was 916.21 ± 100.32 mm^3.

In the case of `C=CC(=O)N1C[C@@H]2C(=O)N(CCN(C)C)c3c(c4cc(Cl)c(-c5c(O)cccc5F)nc4n(-c4c(C)ccnc4C(C)C)c3=O)N2C[C@H]1C` [HBI-2438], the “log 10 Bioluminescence (mean ± SEM)” value ([2]; 15 mg/kg PO QD, day 0 after start of treatment) is reported as 6.86 ± 0.11, the “log 10 Bioluminescence (mean ± SEM)” value ([2]; 15 mg/kg PO QD, day 7) is reported as 6.49 ± 0.14 and the “log 10 Bioluminescence (mean ± SEM)” value ([2]; 15 mg/kg PO QD, day 14) is reported as 6.44 ± 0.2. The “log 10 Bioluminescence (mean ± SEM)” value ([2]; 15 mg/kg PO QD, day 21) was 6.58 and 6.58 ± 0.21, the T/C ([2]; 15 mg/kg PO QD) was 78.1% and the TGI ([2]; 15 mg/kg PO QD) was 118.2%. For the same molecule, the “log 10 Bioluminescence (mean ± SEM)” value [2, 4] was 6.86 ± 0.1, the “log 10 Bioluminescence (mean ± SEM)” value ([2]; 30 mg/kg PO QD, day 7) was 6.09 ± 0.07 and the “log 10 Bioluminescence (mean ± SEM)” value ([2]; 30 mg/kg PO QD, day 14) was 5.86 ± 0.12. The “log 10 Bioluminescence (mean ± SEM)” value ([2]; 30 mg/kg PO QD, day 21) was 6.00 and 6.00 ± 0.13, the T/C ([2]; 30 mg/kg PO QD) was 71.2% and the TGI ([2]; 30 mg/kg PO QD) was 155.8%. The “log 10 Bioluminescence (mean ± SEM)” value ([2]; 100 mg/kg PO QD, day 0 after start of treatment) was 6.86 ± 0.11, the “log 10 Bioluminescence (mean ± SEM)” value ([2]; 100 mg/kg PO QD, day 7) was 5.92 ± 0.09 and the “log 10 Bioluminescence (mean ± SEM)” value ([2]; 100 mg/kg PO QD, day 14) was 6.04 ± 0.2. The “log 10 Bioluminescence (mean ± SEM)” value ([2]; 100 mg/kg PO QD, day 21) was 6.09 and 6.09 ± 0.24, the T/C ([2]; 100 mg/kg PO QD) was 72.2% and the TGI ([2]; 100 mg/kg PO QD) was 150.0%. For the same molecule, the T/C ([1]; 10 mg/kg QD) was 84.37%, the TGI ([1]; 10 mg/kg QD) was 15.63% and the “Tumor Volume (mean ± SEM)” value ([1]; 10 mg/kg QD) was 1458.01 ± 164.19 mm^3. For the same molecule, the T/C ([1]; 30 mg/kg QD) was 52.41%, the TGI ([1]; 30 mg/kg QD) was 47.59% and the “Tumor Volume (mean ± SEM)” value ([1]; 30 mg/kg QD) was 905.6 ± 108.46 mm^3. For the same molecule, the T/C ([1]; 100 mg/kg QD) was 43.69%, the TGI ([1]; 100 mg/kg QD) was 56.31% and the “Tumor Volume (mean ± SEM)” value ([1]; 100 mg/kg QD) was 754.97 ± 98 mm^3. For the same molecule, the “Day 0 BW (mean ± SEM)” value ([3]; 10 mg/kg QD) was 22.32 ± 0.57, the “Day 20 BW (mean ± SEM)” value ([3]; 10 mg/kg QD) was 22.19 ± 0.81 and the BW change ([3]; 10 mg/kg QD) was −0.62%. The “Maximum mean BWL” value ([3]; 10 mg/kg QD, on Day 20) was −0.62% on, the “Maximum mean BWL” value ([3]; 30 mg/kg QD) was “No BWL” and the “Day 0 BW (mean ± SEM)” value ([3]; 30 mg/kg QD) was 22.54 ± 0.61. The “Day 20 BW (mean ± SEM)” value ([3]; 30 mg/kg QD) was 23.89 ± 0.58, the BW change ([3]; 30 mg/kg QD) was 6.12% and the “Maximum mean BWL” value ([3]; 100 mg/kg QD) was “No BWL”. The “Day 0 BW (mean ± SEM)” value ([3]; 100 mg/kg QD) was 21.91 ± 0.57, the “Day 20 BW (mean ± SEM)” value ([3]; 100 mg/kg QD) was 22.31 ± 0.71 and the BW change ([3]; 100 mg/kg QD) was 1.86%.

In the case of `C=C(F)C(=O)N1CCN(c2nc(OC[C@@H]3CCCN3C)nc3c2CCN(c2cccc4cccc(Cl)c24)C3)C[C@@H]1CC#N` [MRTX849, reference compound], the “log 10 Bioluminescence (mean ± SEM)” value [2, 4] is reported as 6.83 ± 0.14, the “log 10 Bioluminescence (mean ± SEM)” value ([2]; 30 mg/kg PO QD, day 7) is reported as 6.38 ± 0.21 and the “log 10 Bioluminescence (mean ± SEM)” value ([2]; 30 mg/kg PO QD, day 14) is reported as 6.24 ± 0.18. For the same molecule, the “log 10 Bioluminescence (mean ± SEM)” value ([2]; 30 mg/kg PO QD, day 21) was 6.01 and 6.01 ± 0.14, the T/C ([2]; 30 mg/kg PO QD) was 71.3% and the TGI ([2]; 30 mg/kg PO QD) was 152.6%. The T/C ([1]; 100 mg/kg QD) was 41.56%, the TGI ([1]; 100 mg/kg QD) was 58.44% and the “Tumor Volume (mean ± SEM)” value ([1]; 100 mg/kg QD) was 718.22 ± 151.89 mm^3.

In the case of `C[C@@H]1OCC2(CCN(c3cnc(Sc4cccc(NC(=O)c5c(O)nc6n(c5=O)CCCC6)c4Cl)cn3)CC2)[C@@H]1N` [HBI-2376, N-(3-((5-((3S,4S)-4-amino-3-methyl-2-oxa-8-azaspiro[4.5]decan-8-yl)pyrazin-2-yl)thio)-2-chlorophenyl)-2-hydroxy-4-oxo-6,7,8,9-tetrahydro-4H-pyrido[1,2-a]pyrimidine-3-carboxamide], the T/C ([1]; 5 mg/kg QD) is reported as 27.18%, the TGI ([1]; 5 mg/kg QD) is reported as 72.82% and the “Tumor Volume (mean ± SEM)” value ([1]; 5 mg/kg QD) is reported as 469.69 ± 81.71 mm^3. For the same molecule, the “Day 0 BW (mean ± SEM)” value ([3]; 5 mg/kg QD) was 22.79 ± 0.69, the “Day 20 BW (mean ± SEM)” value ([3]; 5 mg/kg QD) was 22.03 ± 1.05 and the BW change ([3]; 5 mg/kg QD) was −3.36%. The “Maximum mean BWL” value ([3]; 5 mg/kg QD, on Day 20) was −3.36% on.

With `C=CC(=O)N1CCN(c2nc(=O)n(-c3c(C)ccnc3C(C)C)c3nc(-c4c(O)cccc4F)c(F)cc23)[C@@H](C)C1` [AMG-510, reference compound] the “log 10 Bioluminescence (mean ± SEM)” value [2, 4] was 6.86 ± 0.09, the “log 10 Bioluminescence (mean ± SEM)” value ([2]; 30 mg/kg PO QD, day 7) was 6.12 ± 0.06 and the “log 10 Bioluminescence (mean ± SEM)” value ([2]; 30 mg/kg PO QD, day 14) was 6.32 ± 0.25. The “log 10 Bioluminescence (mean ± SEM)” value ([2]; 30 mg/kg PO QD, day 21) was 6.69 and 6.69 ± 0.3, the T/C ([2]; 30 mg/kg PO QD) was 79.3% and the TGI ([2]; 30 mg/kg PO QD) was 111.5%.

Reference: US20240252490A1, “Combination Therapies Comprising Kras Inhibitors and SPH2 Inhibitors” (HUYABIO International, LLC, priority 2022, published 2024)
